Measurements as given in patent US20240262818A1, “Selenium Maleimide Compounds And Uses Thereof” (THE UNIVERSITY OF NORTH CAROLINA AT CHAPEL HILL, priority 2021, published 2024).

Tests used:
[1] = test system: peripheral blood mononuclear cells (PBMC); test: Labeling of PBMC with SeMal reagents, mass cytometry; assay type: cell-based; details: viable, fixed and fixed and permeabilized PBMC
Protocol: (§1) 3×10^6 viable, paraformaldehyde-fixed, or fixed and permeabilized peripheral blood mononuclear cells (PBMC) were incubated for 15 min with the indicated concentration of SeMal reagent in 0.2 ml PBS. Binding reactions were stopped by the addition of 5-fold excess volume of Cell Staining Buffer (Fluidigm) followed by incubation with Iridium using standard protocols. Data representations are from gated viable single cells. Cell viability […] incubation (for the viable cell condition) was >98%.

[2] = test system: viable peripheral blood mononuclear cells (PBMC); test: Cell viability after SeMal incubation; assay type: cell-based; details: at working concentrations
Protocol: as §1

[3] = assay type: physicochemical
Protocol: Synthesis of Compound 1: Selenium (31.0 mg, 0.39 mmol, 1.00 equiv.) was suspended in an aqueous solution of 1M NaOH (6 mL) under Ar atmosphere. To the solution, Rongalite (i.e., sodium hydroxymethanesulfinate, Na^+HOCH2SO2^−) (120.0 mg, 0.78 mmol, 2.00 equiv.) was added and stirred vigorously. Then, the reaction solution was heated to 80° C. using an oil bath. After reacting for 0.5 h, hepta-4,6-diynoic acid (44.0 mg, 0.36 mmol, 0.92 equiv.) in ethanol (4 mL) was added and the reaction mixture was reacted at 80° C. for an additional 5 h. The reaction was allowed to cool to room temperature and diluted with a saturated NH4Cl aqueous solution (10 mL). The solution was transferred to separatory funnel and extracted with EtOAc (20 mL×3). The combined organic layer was washed with brine (50 mL) and dried over MgSO4, filtered, concentrated, and purified by flash chromatography (20:1 hexanes:ethyl acetate to 10:1 to 5:1 to 2:1 to 1:1) to yield selenium compound 1 in 45% yield (36 mg). Isotopically pure compounds were also prepared by following the above described procedure.

Compound | labeling of PBMC [1] | toxicity when labeling viable cells [2] | stability on storage [3]
O=C(CCc1ccc[se]1)NCCN1C(=O)C=CC1=O [Compound 2] | effectively label | non-toxic | 
O=C(O)CCc1ccc[se]1 [Compound 1] |  |  | sufficient stability
